Ki data for 11 molecules are collected here from ChEMBL document CHEMBL1144270, “Carbonic anhydrase inhibitors. Interaction of isozymes I, II, IV, V, and IX with carboxylates” (Bioorg Med Chem Lett, 2005).

Some results are limits rather than exact numbers.

Assay [1] deals with Carbonic anhydrase 5A, mitochondrial (Homo sapiens, UniProt P35218). Briefly: Binding affinity against human cytosolic Carbonic anhydrase V.
For the next assay, the target named is Carbonic anhydrase 9 (Homo sapiens, UniProt Q16790). Briefly: Binding affinity against human cytosolic Carbonic anhydrase IX.
In the next assay the target is Carbonic anhydrase 2 (Homo sapiens, UniProt P00918). Briefly: Binding affinity against human cytosolic Carbonic anhydrase II.
In a further assay the target is Carbonic anhydrase 1 (Homo sapiens, UniProt P00915). Briefly: Binding affinity against human cytosolic Carbonic anhydrase I (A = activator).
Carbonic anhydrase 1, sequence (P00915 whole entry): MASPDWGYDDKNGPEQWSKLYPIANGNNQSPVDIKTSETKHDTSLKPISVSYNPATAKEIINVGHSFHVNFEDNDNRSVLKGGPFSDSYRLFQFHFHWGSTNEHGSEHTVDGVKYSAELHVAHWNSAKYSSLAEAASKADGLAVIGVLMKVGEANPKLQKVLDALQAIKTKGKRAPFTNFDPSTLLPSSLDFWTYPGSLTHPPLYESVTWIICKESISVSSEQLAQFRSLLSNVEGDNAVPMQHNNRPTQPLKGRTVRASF
Another assay has as its target Carbonic anhydrase 4 (Homo sapiens, UniProt P22748). Nature of the assay: Binding affinity against human cytosolic Carbonic anhydrase IV.

Carbonic anhydrase 4, sequence (P22748 whole entry): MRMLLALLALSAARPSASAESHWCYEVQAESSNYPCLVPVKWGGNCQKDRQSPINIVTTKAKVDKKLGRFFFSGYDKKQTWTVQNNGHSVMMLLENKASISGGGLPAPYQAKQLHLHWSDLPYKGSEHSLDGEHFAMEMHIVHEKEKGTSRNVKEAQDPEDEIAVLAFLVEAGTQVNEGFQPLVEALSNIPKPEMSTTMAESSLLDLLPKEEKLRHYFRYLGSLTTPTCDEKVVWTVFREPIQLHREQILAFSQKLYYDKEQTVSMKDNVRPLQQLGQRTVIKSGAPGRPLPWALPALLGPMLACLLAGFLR
Carbonic anhydrase 5A, mitochondrial, sequence (P35218 whole entry): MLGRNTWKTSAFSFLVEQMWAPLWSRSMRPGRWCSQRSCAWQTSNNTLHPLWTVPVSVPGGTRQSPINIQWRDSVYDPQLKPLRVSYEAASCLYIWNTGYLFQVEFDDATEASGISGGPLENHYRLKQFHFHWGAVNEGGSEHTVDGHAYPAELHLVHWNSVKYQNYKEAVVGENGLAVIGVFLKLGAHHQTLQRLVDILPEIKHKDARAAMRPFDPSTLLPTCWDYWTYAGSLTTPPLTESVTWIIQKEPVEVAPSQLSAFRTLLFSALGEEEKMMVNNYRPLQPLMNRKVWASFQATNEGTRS

Regarding `O=C([O-])O.[Na+]` [SODIUM BICARBONATE], the Ki (commonly the equilibrium dissociation constant of an inhibitor or competing ligand from its target) in assay [1] was 82000 µM.

Take `O=C(O)C[C@H](O)C(=O)O` [E350]: the inhibitory constant (Ki) on Carbonic anhydrase 9 is 7420 µM; on Carbonic anhydrase 2 it was 1870 µM; on Carbonic anhydrase 1, “Activator”; in assay [1], 2490 µM; on Carbonic anhydrase 4, 53.7 µM.

As to `O=C([O-])c1ccccc1.[Na+]` [SODIUM BENZOATE], the Ki on Carbonic anhydrase 9 was more than 150000 µM; on Carbonic anhydrase 2 it was 30 µM; at Carbonic anhydrase 1, “Activator”; in assay [1], 7010 µM; on Carbonic anhydrase 4, 74.7 µM.

Consider `O=C([O-])CC(=O)[O-].[Na+].[Na+]` [DISODIUM MALONATE], for which the inhibition constant (Ki) at Carbonic anhydrase 9 was 1270 µM; on Carbonic anhydrase 2, 1620 µM; at Carbonic anhydrase 1 it was “Activator”; in assay [1] it was 6000 µM; at Carbonic anhydrase 4, 2.8 µM.

With `O=C(O)c1c(F)c(F)cc(F)c1F`, the Ki at Carbonic anhydrase 9 is 770 µM; on Carbonic anhydrase 2 it was 6 µM; in assay [1], 1620 µM; on Carbonic anhydrase 4 it was 74.5 µM.

For the molecule `CC(O)C(=O)[O-].[Na+]` (configuration not stated) [SODIUM LACTATE], the Ki was more than 150000 µM on Carbonic anhydrase 9; 3220 µM on Carbonic anhydrase 2; “Activator” on Carbonic anhydrase 1; 3370 µM in assay [1]; 1530 µM at Carbonic anhydrase 4.

With `O=C([O-])CC(O)(CC(=O)[O-])C(=O)[O-].[Na+].[Na+].[Na+]` [SODIUM CITRATE], the Ki on Carbonic anhydrase 9 is 4930 µM; at Carbonic anhydrase 2 it was 2160 µM; on Carbonic anhydrase 1, “Activator”; in assay [1], 1670 µM; on Carbonic anhydrase 4, 0.099 µM.

For the molecule `CC(=O)[O-].[Na+]` [SODIUM ACETATE], the Ki on Carbonic anhydrase 9 was more than 150000 µM; on Carbonic anhydrase 2, 130 µM; at Carbonic anhydrase 1, “Activator”; in assay [1], 25900 µM; on Carbonic anhydrase 4 it was 550 µM.

As for `CC(=O)C(=O)[O-].[Na+]` [PYRUVATE SODIUM], the Ki was 1120 µM at Carbonic anhydrase 9; 2110 µM on Carbonic anhydrase 2; “Activator” at Carbonic anhydrase 1; 5500 µM in assay [1]; 14.5 µM on Carbonic anhydrase 4.

Take `O=C[O-].[Na+]` [SODIUM FORMATE]: the values for the inhibition constant Ki result (at Carbonic anhydrase 1; in assay [1]) were “Activator” and 9970 µM, respectively.

`O=C([O-])C(=O)[O-].[Na+].[Na+]` [SODIUM OXALATE]: the inhibition constant Ki at Carbonic anhydrase 9 was 3280 µM; on Carbonic anhydrase 2 it was 990 µM; at Carbonic anhydrase 1, “Activator”; in assay [1], 2230 µM; at Carbonic anhydrase 4 it was 0.099 µM.
